The source of these data is US20120010289A1, “METHOD FOR PLACENTAL EXFOLIATION USING OXO-ARACHIDONIC ACID OR THE LIKE” (Inc Admin Agcy Natl Agric & Food Res. Organization, priority 2007, published 2012).

The test system of data set [1] is cultured fibroblasts derived from the placenta (MMP-producing cells). Kind of data set: Cell exfoliation assay to search for MMP activators. The format is cell-based. To be noted: fibroblasts from bovine fetal placenta, monolayer treated with cortisol, compound added; FIG. 2 and FIG. 3. As for the experimental part:
The in vitro pharmacological evaluation is exemplified by a method using cultured fibroblasts derived from the placenta (MMP-producing cells). First, the composition for placental exfoliation of the present invention is added to a culture medium of the concerned cultured fibroblasts. After the addition, the cells are cultured for a fixed period of time.
Therefore, cultured fibroblasts derived from the placenta (MMP-producing cells) were used to search for MMP activators.
Since in vivo MMP-2 is produced from fibroblasts, fibroblasts were prepared from bovine fetal placenta. A fixed amount of cells were seeded on the culture plate, and were treated with cortisol after the monolayer formation. Further, the MMP activator candidate compounds were added thereto.

In another data set the test system is MMP. Kind of data set: MMP activity in released placenta by gelatin zymography. It is filed as in vivo, cow. To be noted: PG-induction+oxo placenta compared with normal parturition and placental retention; FIG. 5. As for the experimental part:
In the method using gelatin zymography, first, the composition for MMP activation of the present invention is brought into contact with MMP-producing cells. After the incubation for a fixed time, the cells are lysed to make a protein solution, which is then subjected to an electrophoresis using a SDS polyacrylamide electrophoresis gel containing a gelatin (MMP substrate). After the migration, the temperature was kept for a fixed time to progress the enzyme reaction, followed by staining of undegraded gelatin remaining in the gel.
The MMP activity in released placenta was analyzed. The samples were as follows: a placenta released from a mother cow of normal parturition (without specific treatment) (expressed as “normal parturition” in FIG. 5); a placenta from a mother cow which was subjected to the fetal delivery induction with a prostaglandin but suffered from placental retention (expressed as “PG-induced parturition” in FIG. 5); a placenta released from a mother cow which was subjected to the fetal delivery induction with a prostaglandin and the subsequent placental release induction with a 12-oxoarachidonic acid (expressed as “PG-induction+oxo” in FIG. 5); and a placenta from a mother cow which had naturally-occurring placental retention (expressed as “placental retention cow” in FIG. 5).
The MMP activity was measured using gelatin zymography. […]

In another data set the test system is pregnant Holstein cow. Kind of data set: Placental exfoliation by administration of 12-oxoarachidonic acid to a cow after prostaglandin-induced fetal delivery. The format is in vivo. As for the experimental part: The in vivo pharmacological evaluation is exemplified by a method using cows which have delivered fetuses by means of the single administration of a prostaglandin. First, the composition for placental exfoliation of the present invention is administered to cows after the fetal delivery.
In order to induce the fetal delivery, a formulation (10 ml) containing a naturally-occurring prostaglandin (50 mg) was intramuscularly injected into the hip of a pregnant Holstein cow (dairy cow) (body weight 779 kg) a week prior to the due date. Moreover, a cow after the third calving was again administered with the prostaglandin after 12 hours from the first injection thereof (evening on the first day).
The mother cow and the newborn calf were both healthy.
Next, after 4 hours from the fetal delivery, a saline solution (15 ml) containing 12-oxoarachidonic acid (1 mg) was intrajugularly injected into the mother cow which had delivered a fetus. After about 6 hours from the injection, the whole amount of the placenta was released from the mother cow. FIG. 4 presents photographs showing the manner of such parturition. […] In cases of the non-administration of 12-oxoarachidonic acid, the placenta was not released from the mother cow, and the placental retention occurred.

Turning to `CCCCC/C=C\C[C@@H](O)/C=C/C=C\C/C=C\CCCC(=O)O` [12(R)-hydroxyarachidonic acid], in data set [1], the “cell exfoliation activity (MMP activation ability)” value (shortened to “cell exfoliation activity”) is on record as “no cell exfoliation activities”.
Regarding `CCCCC/C=C\C[C@@H](/C=C/C=C\C/C=C\CCCC(=O)O)OO` [12(S)-hydroperoxyarachidonic acid], in data set [1], the “cell exfoliation activity” value is “weak cell exfoliation activities”.
With `CCCCC/C=C\C[C@H](O)/C=C/C=C\C/C=C\CCCC(=O)O` [12(S)-hydroxyarachidonic acid], the “cell exfoliation activity” value in data set [1] is given as “no cell exfoliation activities”.
For `CCCCC/C=C\CC(=O)/C=C/C=C\C/C=C\CCCC(=O)O` [12-oxoarachidonic acid], in the data set on MMP, the “MMP pattern (proMMP activity) of released placenta” value was “MMP pattern very close to that of the placenta released from the cow of normal parturition”. For the same compound, the “time from injection to release of the whole amount of the placenta” value in the data set on pregnant Holstein cow (1 mg in 15 ml saline, intrajugular, 4 hours after fetal delivery, Holstein cow 779 kg) is recorded as “about 6 hours”. Further, the “reproductive function of the postexperimental mother cow” value with pregnant Holstein cow (after 1 mg intrajugular 12-oxoarachidonic acid) is recorded as “reproductive function was not affected”. The “cell exfoliation activity” value in data set [1] is reported as “showed a cell exfoliation activity at a lower concentration than that of the arachidonic acid itself”.
As to `CCCCC/C=C\C/C=C\C/C=C\C/C=C\CCCC(=O)O` [arachidonic acid], the “cell exfoliation activity” value in data set [1] was “confirmed to have a cell exfoliation activity”.
Still for that read-out and setting: the same measure for `CCCCC/C=C\C/C=C\C/C=C\CCCCCCC(=O)O` [dihomo-γ-linolenic acid]: “weak activity”; for `CCCCC/C=C\C/C=C\CCCCCCCC(=O)O` [linoleic acid]: “weak activity”; for `CC/C=C\C/C=C\C/C=C\C/C=C\CCCCC(=O)O` [stearidonic acid]: “weak activity”.
For the compound `CC/C=C\C/C=C\C/C=C\CCCCCCCC(=O)O` [α-linolenic acid], the “cell exfoliation activity” value in data set [1] was “weak activity”.
In the case of `CCCCC/C=C\C/C=C\C/C=C\CCCCC(=O)O` [γ-linolenic acid], the “cell exfoliation activity” value in data set [1] is “medium activity”.
Same read-out and setting: the same measure for `CC/C=C/C/C=C/C/C=C/C/C=C/CCCCCCC(=O)O` [ω-3-arachidonic acid]: “weak activity”.
